Columns and labels:
[1] = biological target: T1, NE (Homo sapiens, UniProt P08246); assay: Surface plasmon resonance analysis of NE-HS binding
T1 sequence (P08246 30-267): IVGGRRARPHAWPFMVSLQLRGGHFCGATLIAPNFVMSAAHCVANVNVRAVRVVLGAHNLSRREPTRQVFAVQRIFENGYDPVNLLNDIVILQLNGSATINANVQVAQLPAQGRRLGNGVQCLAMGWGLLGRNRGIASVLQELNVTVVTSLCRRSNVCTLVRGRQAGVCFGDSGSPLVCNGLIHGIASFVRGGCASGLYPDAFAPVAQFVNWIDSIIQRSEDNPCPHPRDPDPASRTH
Protocol: (§1) Interactions of HS and NE were analyzed with a BIAcore 2,000 optical biosensor (BIAcore, Uppsala, Sweden). HS chains recovered from rhSyn-1 after LiOH treatment were biotinylated at the reducing ends (68 nmol biotin/mg HS, as determined by Quant*Tag Biotin kit; Vector Laboratories, Peterborough, UK). By a 2-minute injection of biotinylated HS, […] in 10 mM Hepes (pH 7.4), 0.15 M NaCl, and 0.005% P20 surfactant (HBS-P; BIAcore), at a flow rate of […] onto the streptavidin (SA) sensor chip (BIAcore), increase in 250 resonance units indicated successful immobilization of HS onto the sensor chip. Increasing concentrations of NE in HBS-P buffer were perfused (at […] for 2 min) in turn over the HS-SA sensor chip, each followed by perfusion of buffer to facilitate dissociation. Responses were monitored at 25° C. The sensor chip was regenerated with perfusion of 2 M NaCl/HBS-P. Resonance data obtained from sensorgrams were evaluated with BIAevaluation 3.0 software (BIAcore) to yield rate constants for association (ka), dissociation (kd) and the equilibrium dissociation constant (Kd). For competition assays, NE (2,000 nM) premixed at 1:1 (vol/vol) with defined concentrations (250-2,000 ng/ml) of the competing glycosaminglycan-chondroitin 4-sulfate (C4S), heparin, and chemically modified heparins (N-desulfated re-N-acetylated, completely desulfated re-N-acetylated, or 2-O and 6-O desulfated and N-sulfated; Seikagaku) in HBS-P buffer for 30 minutes at 4° C. was injected onto the HS-SA sensor chip at […]. Dissociation and regeneration procedures were as described above. […] All experiments were preformed in duplicate. Resonance data obtained from sensorgrams were plotted as percent inhibition relative to that obtained without competing glycosaminoglycan. The concentration of competing glycosaminoglycan that interfered with NE binding to the HS-SA sensor by 50% was determined using the statistical program, PRISM (GraphPad, Inc., San Diego, Calif.).

[2] = biological target: T1, NE; assay: Surface plasmon resonance competition assay, NE binding to HS-SA sensor chip; details: for competitive effectiveness (inhibition of NE binding to immobilized HS): NE at 1,000 nM, competing glycosaminoglycans at 1,000 ng/ml; for competition for NE binding to immobilized HS (in words): solution-surface competition, SPR
Protocol: as §1

[3] = biological target: T2, rhSyn-1 (Homo sapiens, UniProt P18827); assay: Western ligand blot of rhSyn-1; type: binding
T2 construct: made in house
T2 sequence (P18827 23-310): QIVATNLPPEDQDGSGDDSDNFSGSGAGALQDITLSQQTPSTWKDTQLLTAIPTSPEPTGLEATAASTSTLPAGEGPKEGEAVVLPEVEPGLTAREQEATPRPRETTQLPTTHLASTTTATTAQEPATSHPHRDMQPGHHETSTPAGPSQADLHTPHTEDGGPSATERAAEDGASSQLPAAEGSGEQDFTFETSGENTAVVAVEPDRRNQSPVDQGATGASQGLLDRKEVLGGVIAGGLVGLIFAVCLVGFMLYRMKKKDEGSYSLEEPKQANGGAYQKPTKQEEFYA
Protocol: Sputum sol was treated (30 min, 24° C.) with the mucolytic reducing agent, DTT (5 mM; Sigma) to deactivate NE, dialyzed against PBS (16 h, 4° C.) to remove DTT, and then incubated (16 h, 37° C.) with HS^ase I and II (0.01 unit each; Seikagaku, Tokyo, Japan) or chondroitinase ABC (0.01 unit; Seikagaku). Control treatments were performed in the relevant incubation buffer (product sheet; Seikagaku), but without the indicated enzymes. The digestion products were subjected to Western blot and Western ligand blot analyses. Recombinant Syn-1 was similarly treated, deglycanated, and analyzed, but without prior treatment with DTT.
Sputum sol samples were treated with DTT, as described above, and then subjected to SDS-PAGE in a 10% gel under nonreducing conditions. The gel electrophoretogram was electroblotted onto polyvinylidene fluoride membrane and nonspecific binding was blocked with 5% nonfat dry milk (1 h, 24° C.) before the blot was probed for the epitope of interest. […] Secondary antibodies were conjugated with horseradish peroxidase. The membranes were washed with PBS-Tween® 20 between incubations. Visualization was enhanced with an enhanced chemiluminescence kit (Amersham Biosciences, Piscataway, N.J.). […]

[4] = biological target: T1, NE; assay: Inhibition of NE activity in the presence of rhSyn-1 or sputum sol; type: biochemical; details: incubations with rhSyn-1 and with sputum samples, with and without prior HS^ase I and II treatment
Protocol: Unopposed NE activity in sputum sol was assessed for equivalent molar concentration by active-site titration. The NE activity of sputum sol was estimated using MeO-Suc-Ala-Ala-Pro-Val-p-nitroanilide as substrate at 2 mM in 0.2 M Tris-HCl, 0.5 M NaCl (pH 8.0); the hydrolytic release of p-nitroaniline was followed at 410 nm, 37° C. (molar extinction coefficient at 410 nm=8,800). An equivalent activity of purified human NE (Sigma, St. Louis, Mo.) was titrated with increasing concentrations of the irreversible inhibitor, MeO-Suc-Ala-Ala-Pro-Val-CMK (Calbiochem, La Jolla, Calif.), and the residual activities were measured.
The inhibitor effects were compared with those of parallel procedure performed on DTT-pretreated sputum sol samples of the 12 patient recruits.

[5] = NE over immobilized HS, 1:1 Langmuir model

Q: For heparan sulfate [HS], which Kd ([1]; NE (50-1,500 nM) perfused over immobilized HS from rhSyn-1, 1:1 Langmuir model, 25° C., read-out: equilibrium dissociation constant (Kd)) is on record?
A: 14.2 nM

Q: And the “ka, rate constant for association” value [1, 5]?
A: 3.31 ± 0.14 × 10^4 M^−1s^−1

Q: And the “kd, rate constant for dissociation” value [1, 5]?
A: 4.69 ± 0.21 × 10^−4 s^−1

Q: With “N-desulfated and re-N-acetylated heparin” as the molecule, how does the “competitive effectiveness (inhibition of NE binding to immobilized HS)” value [2] read?
A: approximately 75%

Q: Which results are given for heparin?
A: competitive effectiveness (inhibition of NE binding to immobilized HS) [2]: 95%; competition for NE binding to immobilized HS (in words) [2]: Effective competition

Q: alpha-1-antitrypsin [α1-AT] was tested. Which “binding to glycanated rhSyn-1” value [3] did it give?
A: not

Q: And the “binding to deglycanated rhSyn-1 core protein” value ([3]; after heparitinase and chondroitinase treatments)?
A: binding

Q: Which “competition for NE binding to immobilized HS (in words)” value (from here on “competition for NE binding”) [2] does the source give for chondroitin 4-sulfate [C4S] here?
A: failed to outcompete

Q: What about the “competition for NE binding” value ([2]; listed as CS) of the same molecule?
A: not

Q: How did the “competitive effectiveness (inhibition of NE binding to immobilized HS)” value [2] turn out when “2-0 and 6-0 desulfated and N-sulfated heparin” was run?
A: approximately 60%

Q: Which “competition for NE binding” value [2] does the source give for “Completely desulfated and re-N-acetylated heparin” here?
A: failed to outcompete

B1: eglin C (peptide, UniProt P01051 1-70, looked up)
Eglin C: TEFGSELKSFPEVVGKTVDQAREYFTLHYPQYDVYFLPEGSPVTLDLRYNRVRVFYNPGTNVVNHVPHVG
Q: B1 was tested. Which “inhibition of NE activity (in words)” value [4] did it give?
A: complete inhibition

Reference: patent US20110212181A1, “COMPOSITIONS AND METHODS FOR TREATING CHRONIC RESPIRATORY INFLAMMATION” (The University of Hong Kong, priority 2010, published 2011)
